Data: paper PMC5564600 (Oncotarget, 2017)

Tests used:
Assay in all cases: biochemical
Format in all cases: binding
panel of 442 kinases [1] = biological target: T1, panel of 442 kinases (Homo sapiens, UniProt P17948); settings: FLT1; for remaining activity at 1 µM: read-out: % of control at 1 µM
T1 construct: purchased Ambit Biosciences (scanMAXX KINOMEscan)

panel of 442 kinases [2] = biological target: T2, panel of 442 kinases (Homo sapiens, UniProt P21802); settings: FGFR2; for remaining activity at 1 µM: read-out: % of control at 1 µM
T2 construct: purchased Ambit Biosciences (scanMAXX KINOMEscan)
T2 sequence (P21802 22-821): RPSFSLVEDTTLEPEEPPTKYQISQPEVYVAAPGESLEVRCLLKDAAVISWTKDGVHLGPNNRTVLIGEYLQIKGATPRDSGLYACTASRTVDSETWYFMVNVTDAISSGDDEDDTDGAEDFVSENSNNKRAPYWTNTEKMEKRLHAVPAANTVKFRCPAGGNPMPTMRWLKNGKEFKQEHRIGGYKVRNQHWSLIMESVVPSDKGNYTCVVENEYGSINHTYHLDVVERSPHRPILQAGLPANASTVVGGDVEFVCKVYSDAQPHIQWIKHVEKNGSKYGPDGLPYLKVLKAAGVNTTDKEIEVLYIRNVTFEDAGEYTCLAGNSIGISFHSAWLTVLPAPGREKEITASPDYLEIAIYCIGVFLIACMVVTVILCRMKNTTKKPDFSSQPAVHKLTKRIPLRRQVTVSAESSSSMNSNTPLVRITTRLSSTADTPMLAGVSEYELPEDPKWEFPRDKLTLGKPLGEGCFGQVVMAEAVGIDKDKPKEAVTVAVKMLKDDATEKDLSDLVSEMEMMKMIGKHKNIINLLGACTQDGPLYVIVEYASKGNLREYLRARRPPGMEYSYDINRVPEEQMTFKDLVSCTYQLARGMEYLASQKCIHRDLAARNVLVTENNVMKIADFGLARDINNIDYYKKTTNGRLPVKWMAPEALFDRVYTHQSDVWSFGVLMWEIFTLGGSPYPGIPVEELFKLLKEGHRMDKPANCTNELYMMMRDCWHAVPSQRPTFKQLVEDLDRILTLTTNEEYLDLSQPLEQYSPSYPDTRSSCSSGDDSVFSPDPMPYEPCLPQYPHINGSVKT

panel of 442 kinases [3] = biological target: T3, panel of 442 kinases (Homo sapiens, UniProt P35968); settings: kinase VEGFR2; for remaining activity at 1 µM: read-out: VEGFR2 (% of control at 1 µM)
T3 construct: purchased Ambit Biosciences (scanMAXX KINOMEscan)

panel of 442 kinases [4] = biological target: T4, panel of 442 kinases (Homo sapiens, UniProt P53350); settings: kinase PLK1; for remaining activity at 1 µM: read-out: PLK1 (% of control at 1 µM)
T4 construct: purchased Ambit Biosciences (scanMAXX KINOMEscan)

panel of 442 kinases [5] = biological target: T5, panel of 442 kinases (Homo sapiens, UniProt P54764); settings: EPHA4; for remaining activity at 1 µM: read-out: % of control at 1 µM
T5 construct: purchased Ambit Biosciences (scanMAXX KINOMEscan)
T5 sequence (P54764 20-986): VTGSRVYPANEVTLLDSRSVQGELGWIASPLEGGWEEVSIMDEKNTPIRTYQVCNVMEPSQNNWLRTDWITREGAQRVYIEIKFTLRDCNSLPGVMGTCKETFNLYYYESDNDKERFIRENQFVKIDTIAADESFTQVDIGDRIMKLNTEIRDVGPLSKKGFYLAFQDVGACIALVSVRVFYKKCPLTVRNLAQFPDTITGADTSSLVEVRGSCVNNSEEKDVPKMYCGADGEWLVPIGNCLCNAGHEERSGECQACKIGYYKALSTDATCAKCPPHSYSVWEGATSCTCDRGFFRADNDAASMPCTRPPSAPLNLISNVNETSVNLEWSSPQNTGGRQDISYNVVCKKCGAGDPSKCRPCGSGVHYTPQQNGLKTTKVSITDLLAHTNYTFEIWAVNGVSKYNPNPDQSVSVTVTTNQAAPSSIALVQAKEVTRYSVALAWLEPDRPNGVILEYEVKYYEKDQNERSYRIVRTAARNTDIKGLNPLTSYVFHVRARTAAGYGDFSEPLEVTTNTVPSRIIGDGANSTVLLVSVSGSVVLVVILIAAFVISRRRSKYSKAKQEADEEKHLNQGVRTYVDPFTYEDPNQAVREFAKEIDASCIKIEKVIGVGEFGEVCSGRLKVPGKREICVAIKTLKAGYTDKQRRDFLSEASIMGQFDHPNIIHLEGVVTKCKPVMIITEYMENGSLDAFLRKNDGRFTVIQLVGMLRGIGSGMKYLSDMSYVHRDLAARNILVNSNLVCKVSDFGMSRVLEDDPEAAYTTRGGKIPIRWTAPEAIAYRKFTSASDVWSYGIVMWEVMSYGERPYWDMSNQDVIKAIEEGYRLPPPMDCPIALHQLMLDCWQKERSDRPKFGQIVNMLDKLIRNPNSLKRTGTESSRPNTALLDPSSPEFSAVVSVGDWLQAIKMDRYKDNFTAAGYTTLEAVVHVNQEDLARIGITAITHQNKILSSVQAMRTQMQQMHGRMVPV

panel of 442 kinases [6] = biological target: T6, panel of 442 kinases (Homo sapiens, UniProt Q04771); settings: ACVR1; for remaining activity at 1 µM: read-out: % of control at 1 µM
T6 construct: purchased Ambit Biosciences (scanMAXX KINOMEscan)
T6 sequence (Q04771 21-509): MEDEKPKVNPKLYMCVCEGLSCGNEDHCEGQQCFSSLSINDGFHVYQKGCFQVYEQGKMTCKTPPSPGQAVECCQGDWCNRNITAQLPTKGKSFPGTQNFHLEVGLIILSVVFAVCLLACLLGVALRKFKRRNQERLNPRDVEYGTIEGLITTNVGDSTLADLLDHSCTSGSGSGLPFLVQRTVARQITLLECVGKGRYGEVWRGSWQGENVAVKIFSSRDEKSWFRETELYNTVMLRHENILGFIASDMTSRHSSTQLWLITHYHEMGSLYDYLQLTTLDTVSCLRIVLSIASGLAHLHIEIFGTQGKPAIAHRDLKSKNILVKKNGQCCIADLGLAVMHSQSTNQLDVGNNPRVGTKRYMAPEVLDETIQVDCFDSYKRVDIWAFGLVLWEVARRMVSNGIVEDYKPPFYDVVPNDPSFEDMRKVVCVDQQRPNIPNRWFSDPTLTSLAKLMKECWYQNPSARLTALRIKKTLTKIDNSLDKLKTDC

panel of 442 kinases [7] = biological target: T7, panel of 442 kinases (Homo sapiens, UniProt Q13470); settings: kinase TNK1; for remaining activity at 1 µM: read-out: TNK1 (% of control at 1 µM)
T7 construct: purchased Ambit Biosciences (scanMAXX KINOMEscan)
T7 sequence (Q13470 1-666): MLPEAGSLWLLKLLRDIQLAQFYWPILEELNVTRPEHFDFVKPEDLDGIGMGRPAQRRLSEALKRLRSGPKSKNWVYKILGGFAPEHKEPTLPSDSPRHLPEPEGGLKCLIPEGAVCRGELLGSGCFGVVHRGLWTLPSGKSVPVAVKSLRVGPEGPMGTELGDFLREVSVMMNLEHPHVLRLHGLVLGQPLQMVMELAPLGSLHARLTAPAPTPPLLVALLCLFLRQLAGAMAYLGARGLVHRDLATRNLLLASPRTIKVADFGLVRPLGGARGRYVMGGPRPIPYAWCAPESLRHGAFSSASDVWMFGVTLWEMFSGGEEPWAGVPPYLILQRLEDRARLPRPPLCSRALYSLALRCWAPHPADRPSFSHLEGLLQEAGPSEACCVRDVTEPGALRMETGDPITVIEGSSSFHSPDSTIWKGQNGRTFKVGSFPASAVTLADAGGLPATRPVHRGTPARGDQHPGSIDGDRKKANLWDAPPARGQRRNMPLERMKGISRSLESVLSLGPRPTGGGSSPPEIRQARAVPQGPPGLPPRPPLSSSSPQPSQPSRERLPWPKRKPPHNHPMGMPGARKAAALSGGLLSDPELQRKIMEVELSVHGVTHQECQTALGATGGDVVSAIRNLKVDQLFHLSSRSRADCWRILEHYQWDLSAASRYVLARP

panel of 442 kinases [8] = biological target: T8, panel of 442 kinases (Homo sapiens, UniProt Q15303); settings: ERBB4; for remaining activity at 1 µM: read-out: % of control at 1 µM
T8 construct: purchased Ambit Biosciences (scanMAXX KINOMEscan)

panel of 442 kinases [9] = biological target: T9, panel of 442 kinases (Homo sapiens, UniProt Q8NEV4); settings: kinase MYO3A; for remaining activity at 1 µM: read-out: % of control at 1 µM
T9 construct: purchased Ambit Biosciences (scanMAXX KINOMEscan)

panel of 442 kinases [10] = biological target: T10, panel of 442 kinases (Homo sapiens, UniProt Q8TDC3); settings: BRSK1; for remaining activity at 1 µM: read-out: % of control at 1 µM
T10 construct: purchased Ambit Biosciences (scanMAXX KINOMEscan)
T10 sequence (Q8TDC3 1-778): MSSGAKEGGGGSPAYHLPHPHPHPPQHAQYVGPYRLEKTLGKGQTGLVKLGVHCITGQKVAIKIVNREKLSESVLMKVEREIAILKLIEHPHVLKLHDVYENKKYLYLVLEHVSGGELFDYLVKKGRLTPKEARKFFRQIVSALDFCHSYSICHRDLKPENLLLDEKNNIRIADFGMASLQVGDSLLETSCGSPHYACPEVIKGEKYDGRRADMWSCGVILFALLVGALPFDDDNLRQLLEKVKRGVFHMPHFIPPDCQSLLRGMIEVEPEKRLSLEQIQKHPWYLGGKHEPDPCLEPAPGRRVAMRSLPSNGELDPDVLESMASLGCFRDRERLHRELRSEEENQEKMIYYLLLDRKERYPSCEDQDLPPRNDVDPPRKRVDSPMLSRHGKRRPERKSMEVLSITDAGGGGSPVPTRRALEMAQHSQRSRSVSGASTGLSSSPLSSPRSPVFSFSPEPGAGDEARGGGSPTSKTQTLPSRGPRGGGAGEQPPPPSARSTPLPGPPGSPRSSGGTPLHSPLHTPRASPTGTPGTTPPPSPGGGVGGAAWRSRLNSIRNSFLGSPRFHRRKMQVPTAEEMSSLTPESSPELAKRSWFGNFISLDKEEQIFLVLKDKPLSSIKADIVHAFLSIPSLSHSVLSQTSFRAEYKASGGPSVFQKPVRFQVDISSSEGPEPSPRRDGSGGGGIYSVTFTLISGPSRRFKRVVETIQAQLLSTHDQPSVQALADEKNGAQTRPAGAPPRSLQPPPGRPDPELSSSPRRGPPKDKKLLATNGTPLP

panel of 442 kinases [11] = biological target: T11, panel of 442 kinases (Homo sapiens, UniProt Q9Y5S2); settings: kinase MRCKB; for remaining activity at 1 µM: read-out: % of control at 1 µM
T11 construct: purchased Ambit Biosciences (scanMAXX KINOMEscan)
T11 sequence (Q9Y5S2 whole entry): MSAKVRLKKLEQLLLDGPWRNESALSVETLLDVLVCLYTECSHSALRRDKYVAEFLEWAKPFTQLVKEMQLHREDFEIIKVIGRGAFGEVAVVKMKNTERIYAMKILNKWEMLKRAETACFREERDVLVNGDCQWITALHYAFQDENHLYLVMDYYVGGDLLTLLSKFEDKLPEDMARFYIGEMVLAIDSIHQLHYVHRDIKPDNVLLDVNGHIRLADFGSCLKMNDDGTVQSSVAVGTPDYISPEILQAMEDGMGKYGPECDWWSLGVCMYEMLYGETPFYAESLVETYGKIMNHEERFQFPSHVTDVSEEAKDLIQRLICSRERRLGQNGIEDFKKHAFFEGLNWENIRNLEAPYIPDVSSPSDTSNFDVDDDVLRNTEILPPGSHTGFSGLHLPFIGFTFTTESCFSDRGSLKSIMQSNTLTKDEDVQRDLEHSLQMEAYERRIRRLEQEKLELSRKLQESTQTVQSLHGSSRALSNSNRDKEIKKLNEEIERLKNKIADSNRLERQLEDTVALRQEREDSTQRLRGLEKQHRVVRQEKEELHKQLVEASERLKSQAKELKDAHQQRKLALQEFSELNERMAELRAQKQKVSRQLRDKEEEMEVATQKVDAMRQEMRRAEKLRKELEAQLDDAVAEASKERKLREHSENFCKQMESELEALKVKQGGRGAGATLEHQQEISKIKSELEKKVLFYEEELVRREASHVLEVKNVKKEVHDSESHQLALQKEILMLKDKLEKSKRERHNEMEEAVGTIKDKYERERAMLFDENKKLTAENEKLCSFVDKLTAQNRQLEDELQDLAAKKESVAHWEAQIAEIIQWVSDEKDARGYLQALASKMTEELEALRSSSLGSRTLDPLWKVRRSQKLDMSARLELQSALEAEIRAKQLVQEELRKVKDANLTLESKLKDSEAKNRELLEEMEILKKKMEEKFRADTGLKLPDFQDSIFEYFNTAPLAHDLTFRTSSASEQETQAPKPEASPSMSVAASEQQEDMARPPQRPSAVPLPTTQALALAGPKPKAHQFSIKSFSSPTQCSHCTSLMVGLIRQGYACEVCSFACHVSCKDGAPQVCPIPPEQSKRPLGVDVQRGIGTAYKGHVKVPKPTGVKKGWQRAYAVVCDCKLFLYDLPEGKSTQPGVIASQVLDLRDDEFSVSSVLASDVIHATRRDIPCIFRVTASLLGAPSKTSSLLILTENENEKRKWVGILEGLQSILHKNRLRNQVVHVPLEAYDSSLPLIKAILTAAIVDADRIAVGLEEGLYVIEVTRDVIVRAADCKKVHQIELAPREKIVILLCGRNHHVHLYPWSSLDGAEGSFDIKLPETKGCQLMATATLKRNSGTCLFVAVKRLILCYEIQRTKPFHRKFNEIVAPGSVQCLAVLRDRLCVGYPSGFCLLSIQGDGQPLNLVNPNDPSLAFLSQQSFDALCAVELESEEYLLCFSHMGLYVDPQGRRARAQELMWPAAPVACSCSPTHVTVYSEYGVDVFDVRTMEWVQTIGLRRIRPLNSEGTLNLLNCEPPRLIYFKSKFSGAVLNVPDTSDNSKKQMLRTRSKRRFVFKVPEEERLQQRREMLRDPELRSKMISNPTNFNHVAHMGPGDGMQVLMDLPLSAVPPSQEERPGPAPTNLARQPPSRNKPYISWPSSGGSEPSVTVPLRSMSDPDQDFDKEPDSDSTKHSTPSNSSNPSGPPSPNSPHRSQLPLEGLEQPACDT

panel of 442 kinases [12] = biological target: T12, panel of 442 kinases (Homo sapiens, UniProt Q9Y6E0); settings: kinase MST3; for remaining activity at 1 µM: read-out: % of control at 1 µM
T12 construct: purchased Ambit Biosciences (scanMAXX KINOMEscan)

[13] = 10 µM, read-out: % of control at 10 µM

T1 sequence (P17948 27-1338): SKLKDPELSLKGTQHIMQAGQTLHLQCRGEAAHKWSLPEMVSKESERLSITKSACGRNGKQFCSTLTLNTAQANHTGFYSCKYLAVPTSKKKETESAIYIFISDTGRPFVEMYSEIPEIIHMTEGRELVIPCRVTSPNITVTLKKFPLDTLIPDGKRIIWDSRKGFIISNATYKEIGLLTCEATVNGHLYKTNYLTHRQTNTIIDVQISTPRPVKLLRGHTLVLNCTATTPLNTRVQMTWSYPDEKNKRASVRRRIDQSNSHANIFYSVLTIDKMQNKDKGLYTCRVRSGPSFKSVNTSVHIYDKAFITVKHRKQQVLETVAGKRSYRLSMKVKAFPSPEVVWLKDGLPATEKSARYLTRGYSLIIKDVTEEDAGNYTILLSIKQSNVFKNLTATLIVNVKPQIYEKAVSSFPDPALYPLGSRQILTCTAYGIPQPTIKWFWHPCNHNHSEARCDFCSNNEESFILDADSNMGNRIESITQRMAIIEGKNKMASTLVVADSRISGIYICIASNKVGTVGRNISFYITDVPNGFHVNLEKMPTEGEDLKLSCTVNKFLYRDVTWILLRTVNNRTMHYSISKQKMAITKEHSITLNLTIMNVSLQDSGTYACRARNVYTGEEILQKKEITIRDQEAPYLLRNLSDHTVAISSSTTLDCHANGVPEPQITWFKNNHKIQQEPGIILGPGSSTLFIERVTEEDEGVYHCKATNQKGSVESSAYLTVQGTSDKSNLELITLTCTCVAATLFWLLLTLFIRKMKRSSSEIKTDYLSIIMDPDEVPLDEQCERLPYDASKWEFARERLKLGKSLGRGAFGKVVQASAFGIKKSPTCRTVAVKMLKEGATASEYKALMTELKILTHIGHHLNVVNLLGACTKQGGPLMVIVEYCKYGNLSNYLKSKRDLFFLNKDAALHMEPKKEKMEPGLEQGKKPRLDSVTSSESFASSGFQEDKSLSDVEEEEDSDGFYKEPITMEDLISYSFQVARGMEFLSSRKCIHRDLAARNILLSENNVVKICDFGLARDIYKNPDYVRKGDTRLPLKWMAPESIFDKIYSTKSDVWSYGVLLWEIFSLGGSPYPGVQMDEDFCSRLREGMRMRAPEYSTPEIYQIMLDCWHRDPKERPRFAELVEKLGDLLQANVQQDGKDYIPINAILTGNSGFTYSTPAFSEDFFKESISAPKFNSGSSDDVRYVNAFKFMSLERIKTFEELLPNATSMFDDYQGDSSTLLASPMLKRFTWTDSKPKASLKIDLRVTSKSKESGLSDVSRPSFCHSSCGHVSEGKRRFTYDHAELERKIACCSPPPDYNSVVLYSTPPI

Row | Compound | remaining activity at 1 µM (panel of 442 kinases [1]) | remaining activity at 1 µM (panel of 442 kinases [2]) | remaining activity at 1 µM (panel of 442 kinases [3]) | remaining activity at 1 µM (panel of 442 kinases [4]) | remaining activity at 1 µM (panel of 442 kinases [5]) | remaining activity at 1 µM (panel of 442 kinases [6]) | remaining activity at 1 µM (panel of 442 kinases [7]) | remaining activity at 1 µM (panel of 442 kinases [8]) | remaining activity at 1 µM (panel of 442 kinases [9]) | remaining activity at 1 µM (panel of 442 kinases [10]) | remaining activity at 1 µM (panel of 442 kinases [11]) | remaining activity at 1 µM (panel of 442 kinases [12]) | further results
1 | Nc1cc(C(F)(F)F)c(-c2cc(N3CCOCC3)nc(N3CCOCC3)n2)cn1 [Buparlisib] | 100% | 98% | 87% | 65% | 98% | 100% | 100% | 69% | 90% | 100% | 100% | 100% | remaining activity at 10 µM (panel of 442 kinases [1]; [13]): 100%; remaining activity at 10 µM (panel of 442 kinases [2]; [13]): 100%; remaining activity at 10 µM (panel of 442 kinases [3]; 10 µM, read-out: VEGFR2 (% of control at 10 µM)): 100%; remaining activity at 10 µM (panel of 442 kinases [4]; 10 µM, read-out: PLK1 (% of control at 10 µM)): 84%; remaining activity at 10 µM (panel of 442 kinases [5]; [13]): 100%; remaining activity at 10 µM (panel of 442 kinases [6]; [13]): 100%; remaining activity at 10 µM (panel of 442 kinases [7]; 10 µM, read-out: TNK1 (% of control at 10 µM)): 100%; remaining activity at 10 µM (panel of 442 kinases [8]; [13]): 100%; remaining activity at 10 µM (panel of 442 kinases [9]; [13]): 100%; remaining activity at 10 µM (panel of 442 kinases [10]; [13]): 100%; remaining activity at 10 µM (panel of 442 kinases [11]; [13]): 100%; remaining activity at 10 µM (panel of 442 kinases [12]; [13]): 100%
2 | Cn1c(=O)n(-c2ccc(C(C)(C)C#N)cc2)c2c3cc(-c4cnc5ccccc5c4)ccc3ncc21 [Dactolisib, 2-methyl-2-[4-(3-methyl-2-oxo-8-quinolin-3-yl-2,3-dihydroimidazo[4,5-c]quinolin-1-yl)-phenyl] propionitrile] | 86% | 100% | 100% | 93% | 97% | 65% | 88% | 100% | 88% | 83% | 86% | 82% | 
3 | COc1ncc(-c2ccc3nccc(-c4ccnnc4)c3c2)cc1NS(=O)(=O)c1ccc(F)cc1F [Omipalisib] | 100% | 100% | 78% | 97% | 100% | 100% | 100% | 100% | 100% | 100% | 100% | 100% | 
4 | FC(F)c1nc2ccccc2n1-c1nc(N2CCOCC2)nc(N2CCOCC2)n1 [ZSTK474, 2-(difluoromethyl)-1-[4,6-di(4-morpholinyl)-1,3,5-triazin-2-yl]-1H-benzimidazole] | 100% | 100% | 100% | 62% | 96% | 76% | 86% | 100% | 99% | 98% | 80% | 99% | 
